Drawing on patent US9139529B2, “Substituted quinoxalines as sodium channel modulators” (VERTEX PHARMACEUTICALS INCORPORATED, priority 2013, dated 2015), this text covers IC50 for 31 compounds.

The assay addresses human Nav1.8 (Homo sapiens (Human), UniProt Q9Y5Y9). The experiment in a line: E-VIPR optical membrane potential assay with electrical stimulation. The format is cell-based. Conditions: HEK cells expressing human Nav1.8. The source says: Assays for Detecting and Measuring NaV Inhibition Properties of Compounds E-VIPR Optical Membrane Potential Assay Method with Electrical Stimulation
Sodium channels are voltage-dependent proteins that can be activated by inducing membrane voltage changes by applying electric fields. The electrical stimulation instrument and methods of use are described in Ion Channel Assay Methods PCT/US01/21652, herein incorporated by reference and are referred to as E-VIPR. The instrument comprises a microtiter plate handler, an optical system for exciting the coumarin dye while simultaneously recording the coumarin and oxonol emissions, a waveform generator, a current- or voltage-controlled amplifier, and a device for inserting electrodes in well. Under integrated computer control, this instrument passes user-programmed electrical stimulus protocols to cells within the wells of the microtiter plate.
24 hours before the assay on E-VIPR, HEK cells expressing human Nav1.8 were seeded in 384-well poly-lysine coated plates at 15,000-20,000 cells per well. HEK cells were grown in media (exact composition is specific to each cell type and NaV subtype) supplemented with 10% FBS (Fetal Bovine Serum, qualified; GibcoBRL #16140-071) and 1% Pen-Strep (Penicillin-Streptomycin; GibcoBRL #15140-122). Cells were grown in vented cap flasks, in 90% humidity and 5% CO2.
1) Pre-spotted compounds (in neat DMSO) into compound plates. Vehicle control (neat DMSO), the positive control (20 mM DMSO stock tetracaine, 125 μM final in assay) and test compounds were added to each well at 160× desired final concentration in neat DMSO. Final compound plate volume was 80 μL (80-fold intermediate dilution from 1 μL DMSO spot; 160-fold final dilution after transfer to cell plate). Final DMSO concentration for all wells in assay was 0.625%.
2) Prepared Hexyl Dye Solution.
3) Prepared cell plates. On the day of the assay, medium was aspirated and cells were washed three times with 100 μL of Bath1 Solution, maintaining 25 μL residual volume in each well.
4) Dispensed 25 μL per well of Hexyl Dye Solution into cell plates. Incubated for 20-35 minutes at room temp or ambient conditions.
5) Dispensed 80 μL per well of Bath1 into compound plates. Acid Yellow-17 (1 mM) was added and Potassium Chloride was altered from 4.5 to 20 mM depending on the NaV subtype and assay sensitivity.
6) Washed cell plates three times with 100 μL per well of Bath1, leaving 25 μL of residual volume. Then transferred 25 uL per well from Compound Plates to Cell Plates. Incubated for 20-35 minutes at room temp/ambient condition.
7) Read Plate on E-VIPR. Used the current-controlled amplifier to deliver stimulation wave pulses for 10 seconds and a scan rate of 200 Hz. A pre-stimulus recording was performed for 0.5 seconds to obtain the un-stimulated intensities baseline. The stimulatory waveform was followed by 0.5 seconds of post-stimulation recording to examine the relaxation to the resting state.
Data was analyzed and reported as normalized ratios of emission intensities measured in the 460 nm and 580 nm channels. The response as a function of time was reported as the ratios obtained using the following formula: […]
The data was further reduced by calculating the initial (Ri) and final (Rf) ratios. These were the average ratio values during part or all of the pre-stimulation period, and during sample points during the stimulation period. The response to the stimulus R=Rf/Ri was then calculated and reported as a function of time.
Control responses were obtained by performing assays in the presence of a compound with the desired properties (positive control), such as tetracaine, and in the absence of pharmacological agents (negative control). Responses to the negative (N) and positive (P) controls were calculated as above. The compound antagonist activity A is defined as:
[formula] where R is the ratio response of the test compound

Each structure is given as a SMILES string. pIC50: −log10 of the molar value.

Chain of human Nav1.8 (Q9Y5Y9 whole entry): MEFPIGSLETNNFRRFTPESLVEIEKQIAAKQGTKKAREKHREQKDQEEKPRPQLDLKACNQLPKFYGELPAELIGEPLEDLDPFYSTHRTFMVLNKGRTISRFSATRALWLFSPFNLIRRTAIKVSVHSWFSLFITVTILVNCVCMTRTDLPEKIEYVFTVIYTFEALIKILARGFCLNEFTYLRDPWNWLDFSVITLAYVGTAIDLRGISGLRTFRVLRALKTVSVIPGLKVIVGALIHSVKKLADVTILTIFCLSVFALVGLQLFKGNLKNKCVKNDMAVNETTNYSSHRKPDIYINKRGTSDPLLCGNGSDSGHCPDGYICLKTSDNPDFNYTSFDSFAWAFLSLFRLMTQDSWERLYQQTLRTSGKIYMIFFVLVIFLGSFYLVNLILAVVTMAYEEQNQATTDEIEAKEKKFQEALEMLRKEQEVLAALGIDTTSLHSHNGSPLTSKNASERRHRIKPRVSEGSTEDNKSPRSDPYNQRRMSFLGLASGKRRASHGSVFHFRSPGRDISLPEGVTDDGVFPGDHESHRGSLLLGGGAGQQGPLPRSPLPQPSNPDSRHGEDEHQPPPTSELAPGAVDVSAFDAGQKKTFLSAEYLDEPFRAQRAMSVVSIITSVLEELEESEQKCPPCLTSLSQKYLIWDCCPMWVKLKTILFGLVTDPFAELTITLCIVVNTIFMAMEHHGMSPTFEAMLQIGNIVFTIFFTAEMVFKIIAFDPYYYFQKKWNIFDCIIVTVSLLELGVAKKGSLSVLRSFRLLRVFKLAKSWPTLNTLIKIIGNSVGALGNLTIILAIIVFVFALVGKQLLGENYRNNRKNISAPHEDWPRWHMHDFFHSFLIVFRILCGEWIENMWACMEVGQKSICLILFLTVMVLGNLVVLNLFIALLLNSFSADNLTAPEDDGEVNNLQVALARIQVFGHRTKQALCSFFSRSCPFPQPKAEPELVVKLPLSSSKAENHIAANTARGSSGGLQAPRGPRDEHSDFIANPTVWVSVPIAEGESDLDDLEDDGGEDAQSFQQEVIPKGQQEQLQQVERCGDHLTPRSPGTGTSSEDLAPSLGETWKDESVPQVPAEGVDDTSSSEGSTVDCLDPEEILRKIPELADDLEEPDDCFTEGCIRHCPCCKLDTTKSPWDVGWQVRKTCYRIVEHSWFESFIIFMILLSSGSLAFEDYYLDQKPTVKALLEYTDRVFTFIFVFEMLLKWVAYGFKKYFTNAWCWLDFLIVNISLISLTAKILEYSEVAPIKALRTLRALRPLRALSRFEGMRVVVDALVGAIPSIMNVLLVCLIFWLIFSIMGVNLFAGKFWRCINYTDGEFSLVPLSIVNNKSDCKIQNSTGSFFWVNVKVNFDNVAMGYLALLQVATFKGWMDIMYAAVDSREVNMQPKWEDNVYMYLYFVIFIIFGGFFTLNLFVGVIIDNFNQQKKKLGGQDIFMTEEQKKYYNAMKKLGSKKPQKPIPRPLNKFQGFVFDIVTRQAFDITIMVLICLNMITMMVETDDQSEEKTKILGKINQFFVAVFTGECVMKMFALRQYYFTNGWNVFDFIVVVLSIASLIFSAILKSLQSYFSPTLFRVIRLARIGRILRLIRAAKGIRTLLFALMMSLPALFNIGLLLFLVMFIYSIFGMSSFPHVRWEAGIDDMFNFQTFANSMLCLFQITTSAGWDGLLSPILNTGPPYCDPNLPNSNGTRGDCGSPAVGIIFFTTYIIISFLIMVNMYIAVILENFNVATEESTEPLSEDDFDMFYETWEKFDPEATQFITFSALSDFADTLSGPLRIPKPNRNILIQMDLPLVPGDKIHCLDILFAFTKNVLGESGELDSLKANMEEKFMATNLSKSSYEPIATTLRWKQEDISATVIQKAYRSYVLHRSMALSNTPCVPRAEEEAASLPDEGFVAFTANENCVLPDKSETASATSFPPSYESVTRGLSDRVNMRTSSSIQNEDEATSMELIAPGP

The term pIC50 denotes −log10 of the IC50, conventionally taken in molar units. The compound `COc1cc(Cl)ccc1Oc1nc2ccccc2nc1C(=O)Nc1cccc(S(N)(=O)=O)c1` [Compound 11, 3-(4-chloro-2-methoxyphenoxy)-N-(3-sulfamoylphenyl)quinoxaline-2-carboxamide] showed a negative logarithm of the IC50 (pIC50) of 8.30.

The compound `COc1ccc(Oc2nc3ccccc3nc2C(=O)Nc2cccc(S(N)(=O)=O)c2)c(Cl)c1` [Compound 4, 3-(2-chloro-4-methoxyphenoxy)-N-(3-sulfamoylphenyl)quinoxaline-2-carboxamide] showed a pIC50 of 8.40. This pIC50 and that of the compound before are within 0.2 log units of each other.

In the case of `NS(=O)(=O)c1cccc(NC(=O)c2cc3ccccc3nc2Oc2ccc(OCC(F)(F)F)cc2)c1` [Compound 67, N-(3-sulfamoylphenyl)-2-(4-(2,2,2-trifluoroethoxy)phenoxy)quinoline-3-carboxamide], the pIC50 was 7.21.

`COc1cc(F)ccc1Oc1nc2ccccc2nc1C(=O)Nc1ccc2[nH]c(CO)nc2c1` [Compound 44, 3-(4-fluoro-2-methoxyphenoxy)-N-(2-(hydroxymethyl)-1H-benzo[d]imidazol-5-yl)quinoxaline-2-carboxamide] showed a pIC50 of 6.37.

In the case of `Cc1cc(F)ccc1Oc1nc2ccccc2nc1C(=O)Nc1ccc(C(=O)O)nc1` [Compound 19, 5-(3-(4-fluoro-2-methylphenoxy)quinoxaline-2-carboxamido)picolinic acid], the pIC50 is 7.07. Compared with the last compound, the pIC50 is 0.70 log units higher.

`COc1ccc(Oc2nc3ccccc3nc2C(=O)Nc2ccc(C(=O)O)nc2)c(Cl)c1` [Compound 30, 5-(3-(2-chloro-4-methoxyphenoxy)quinoxaline-2-carboxamido)picolinic acid]: the pIC50 is 7.16.

`COc1cc(F)ccc1Oc1nc2ccccc2nc1C(=O)Nc1ccc2[nH]nnc2c1` [Compound 42, N-(1H-benzo[d][1,2,3]triazol-5-yl)-3-(4-fluoro-2-methoxyphenoxy)quinoxaline-2-carboxamide] had a pIC50 of 7.02.

Regarding `Cc1cc(Cl)ccc1Oc1nc2ccccc2cc1C(=O)Nc1cccc(S(N)(=O)=O)c1` [Compound 71, 2-(4-chloro-2-methylphenoxy)-N-(3-sulfamoylphenyl)quinoline-3-carboxamide], the pIC50 was 7.85.

As to `COc1ccc(Oc2nc3ccccc3nc2C(=O)Nc2ccc(C(=O)O)nc2)cc1F` [Compound 27, 5-(3-(3-fluoro-4-methoxyphenoxy)quinoxaline-2-carboxamido)picolinic acid], the pIC50 is 6.73.

For the compound `COc1ccc(Oc2nc3ccccc3nc2C(=O)Nc2cccc(S(N)(=O)=O)c2)c(F)c1` [Compound 12, 3-(2-fluoro-4-methoxyphenoxy)-N-(3-sulfamoylphenyl)quinoxaline-2-carboxamide], the negative logarithm of the IC50 (pIC50) is 7.66. This pIC50 lies 0.93 log units higher than the previous one.

Consider `O=C(O)c1ccc(NC(=O)c2nc3ccccc3nc2Oc2ccc(F)cc2Cl)cn1` [Compound 28, 5-(3-(2-chloro-4-fluorophenoxy)quinoxaline-2-carboxamido)picolinic acid], for which the pIC50 was 7.29.

As for `O=C(Nc1cc[nH]c(=O)c1)c1nc2ccccc2nc1Oc1ccc(F)cc1` [Compound 35, 3-(4-fluorophenoxy)-N-(2-oxo-1,2-dihydropyridin-4-yl)quinoxaline-2-carboxamide], the negative logarithm of the IC50 (pIC50) was 7.13.

Take `COc1cc(F)ccc1Oc1nc2ccccc2nc1C(=O)Nc1cccc(C#N)c1` [Compound 56, N-(3-cyanophenyl)-3-(4-fluoro-2-methoxyphenoxy)quinoxaline-2-carboxamide]: the pIC50 is 7.52.

Compound `COc1cc(F)ccc1Oc1nc2ccccc2nc1C(=O)Nc1cccc(C(N)=O)c1` [Compound 59, N-(3-carbamoylphenyl)-3-(4-fluoro-2-methoxyphenoxy)quinoxaline-2-carboxamide] showed a pIC50 of 6.74.

With `COc1cc(F)ccc1Oc1nc2ccccc2nc1C(=O)Nc1ccc(C#N)nc1` [Compound 51, N-(6-cyanopyridin-3-yl)-3-(4-fluoro-2-methoxyphenoxy)quinoxaline-2-carboxamide], the pIC50 was 7.43.

In the case of `COc1ccc(Oc2nc3ccccc3cc2C(=O)Nc2cccc(S(N)(=O)=O)c2)c(F)c1` [Compound 70, 2-(2-fluoro-4-methoxyphenoxy)-N-(3-sulfamoylphenyl)quinoline-3-carboxamide], the pIC50 is 7.47.

As to `COc1cc(F)ccc1Oc1nc2ccccc2nc1C(=O)Nc1cccc(-c2nnn[nH]2)c1` [Compound 45, N-(3-(1H-tetrazol-5-yl)phenyl)-3-(4-fluoro-2-methoxyphenoxy)quinoxaline-2-carboxamide], the pIC50 was 5.78.

The compound `COc1cc(Cl)ccc1Oc1nc2ccccc2cc1C(=O)Nc1cccc(S(N)(=O)=O)c1` [Compound 73, 2-(4-chloro-2-methoxyphenoxy)-N-(3-sulfamoylphenyl)quinoline-3-carboxamide] gave a pIC50 of 7.51. This pIC50 lies 1.73 log units higher than the previous one.

`NS(=O)(=O)c1cccc(NC(=O)c2nc3ccccc3nc2Oc2ccc(OC(F)(F)F)cc2)c1` [Compound 3, N-(3-sulfamoylphenyl)-3-(4-(trifluoromethoxy)phenoxy)quinoxaline-2-carboxamide] gave a pIC50 of 7.85.

Turning to `Cc1cc(Cl)ccc1Oc1nc2ccccc2nc1C(=O)Nc1cccc(S(N)(=O)=O)c1` [Compound 9, 3-(4-chloro-2-methylphenoxy)-N-(3-sulfamoylphenyl)quinoxaline-2-carboxamide], the negative logarithm of the IC50 (pIC50) was 7.85.

Consider `COc1cc(F)ccc1Oc1nc2ccccc2nc1C(=O)Nc1nc(C(=O)O)cs1` [Compound 37, 2-(3-(4-Fluoro-2-methoxyphenoxy)quinoxaline-2-carboxamido)thiazole-4-carboxylic acid], for which the pIC50 is 6.35.

As to `O=C(O)c1cc(NC(=O)c2nc3ccccc3nc2Oc2ccc(OC(F)(F)F)cc2)ccn1` [Compound 33, 4-(3-(4-(trifluoromethoxy)phenoxy)quinoxaline-2-carboxamido)picolinic acid], the pIC50 is 8.15.

As for `COc1ccc(Oc2nc3ccccc3cc2C(=O)Nc2cccc(S(N)(=O)=O)c2)cc1F` [Compound 62, 2-(3-fluoro-4-methoxyphenoxy)-N-(3-sulfamoylphenyl)quinoline-3-carboxamide], the pIC50 was 7.52. This pIC50 lies 0.63 log units lower than the previous one.

`O=C(O)c1ccc(NC(=O)c2nc3ccccc3nc2Oc2ccc(OC(F)(F)F)cc2)cn1` [Compound 31, 5-(3-(4-(trifluoromethoxy)phenoxy)quinoxaline-2-carboxamido)picolinic acid] had a pIC50 of 7.82.

In turn, `NS(=O)(=O)c1cccc(NC(=O)c2cc3ccccc3nc2Oc2ccc(F)cc2)c1` [Compound 60, 2-(4-fluorophenoxy)-N-(3-sulfamoylphenyl)quinoline-3-carboxamide] had a pIC50 of 7.77.

In the case of `COc1cc(Cl)ccc1Oc1nc2ccccc2nc1C(=O)Nc1ccc(C(=O)O)nc1` [Compound 23, 5-(3-(4-chloro-2-methoxyphenoxy)quinoxaline-2-carboxamido)picolinic acid], the pIC50 is 7.72.

As for `NS(=O)(=O)c1cccc(NC(=O)c2nc3ccccc3nc2Oc2ccccc2)c1` [Compound 13, 3-phenoxy-N-(3-sulfamoylphenyl)quinoxaline-2-carboxamide], the pIC50 was 7.04.

For `COc1cc(F)ccc1Oc1nc2ccccc2nc1C(=O)Nc1cc[nH]n1` [Compound 40, 3-(4-fluoro-2-methoxyphenoxy)-N-(1H-pyrazol-3-yl)quinoxaline-2-carboxamide], the pIC50 is 5.77.

In turn, `COc1cc(F)ccc1Oc1nc2ccccc2nc1C(=O)Nc1cccc(C(=O)O)c1` [Compound 36, 3-(3-(4-fluoro-2-methoxyphenoxy)quinoxaline-2-carboxamido)benzoic acid] had a pIC50 of 6.34.

`COc1cc(F)ccc1Oc1nc2ccccc2nc1C(=O)Nc1nc(C(=O)O)co1` [Compound 39, 2-(3-(4-fluoro-2-methoxyphenoxy)quinoxaline-2-carboxamido)oxazole-4-carboxylic acid] gave a negative-log IC50 (pIC50) of 5.59.

Take `COc1cc(F)ccc1Oc1nc2ccccc2nc1C(=O)Nc1ccc(C(=O)O)nc1` [Compound 32, 5-(3-(4-fluoro-2-methoxyphenoxy)quinoxaline-2-carboxamido)picolinic acid]: the pIC50 is 7.08.
